# Test results as given in patent publication US20230150980A1, “COLLAGEN 1 TRANSLATION INHIBITORS AND METHODS OF USE THEREOF” (Anima Biotech Inc., priority 2020, published 2023).
# Tested on: collagen 1
# Assay: WI-38 collagen 1 inhibition assay (anti-Collagen I immunofluorescence);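 further: minus sign means inactive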
# Format: cell-based
# Details: cellular EC50, WI-38 human lung fibroblasts, values are LogEC50 classes
# Protocol: WI-38 cells (ATCC® CCL-75™) were maintained in MEM EAGLE (NEAA) W. GLUTAMIN (Biological Industries, Cat. 06-1040-15-1A) containing 10% fetal bovine serum (FBS) and 1% Penicillin-Streptomycin Solution. To synchronize the cells (cell cycle synchronization) prior to induction of collagen synthesis, the cells were starved using DMEM-low glucose supplemented with 0.25% FBS for two hours and then without FBS for 24 hours. To induce collagen synthesis, the cells were treated with a collagen induction cocktail for the indicated time. Compounds were added with induction.
# Cells in 96-well or 384-well plates were fixed for 20 min in 4% paraformaldehyde (PFA, ENCO, Cat. sc-281692). Following two washes with 1×PBS, cells were treated with hydrogen peroxide (Acros, Cat: 7722-84-1) for 10 minutes and then washed twice with 1×PBS. Cells were then incubated over-night at 4° C. with Anti-Collagen I (Sigma-Aldrich, Cat: C 2456) antibody and washed three times with 1×PBS. Cell were then incubated with a suitable secondary fluorescently-tagged antibody and nuclei stained with DAPI, for 1 hour, and then washed 3 times with 1×PBS.
# Cell images were taken with Operetta (Perkin Elmer, USA), a wide-field fluorescence microscope at 20× magnification. After acquisition, the images were transferred to Columbus software (Perkin-Elmer) for image analysis. In Columbus, cells were identified by their nucleus, using the “Find Nuceli” module and cytoplasm was detected based on the secondary antibody channel. Subsequently, the fluorescent signal was enumerated in the identified cell region. Data was exported to a data analysis and visualization software, Tibco Spotfire, USA.
row,Compound,COL1 Efficacy (LogEC50)
1,Cc1ncnc(N2CCN(Cc3nc4ccc(F)cc4o3)CC2)c1C(N)=O [compound 333],−
2,"c1ccc2[nH]c(CN3CCN(c4ccncn4)CC3)cc2c1 [Compound 213, 2-((4-(pyrimidin-4-yl)piperazin-1-yl)methyl)-1H-indole]",+++ (+++: <−6)
3,"CCc1cncnc1N1CCN(Cc2nc3ccc(Cl)cc3[nH]2)CC1 [Compound 211, 6-chloro-2-((4-(5-ethylpyrimidin-4-yl)piperazin-1-yl)methyl)-1H-benzo[d]imidazole]",+++ (+++: <−6)
4,CC(C)n1cc(N2CCN(Cc3nc4ccccc4o3)CC2)nn1 [compound 339],−
5,"Clc1cccc2[nH]c(CN3CCN(c4ccncc4)CC3)cc12 [compound 243, 4-chloro-2-[[4-(4-pyridyl)piperazin-1-yl]methyl]-1H-indole]",−
6,"Cc1ncnc(N2CCN(Cc3nc4ccc(C(F)(F)F)cc4o3)CC2)c1C [compound 303, 2-((4-(5,6-dimethylpyrimidin-4-yl)piperazin-1-yl)methyl)-6-(trifluoromethyl)benzo[d]oxazole]",+++ (+++: <−6)
7,"FC(F)(F)c1cncnc1N1CCN(Cc2nc3ccccc3o2)CC1 [compound 315, 2-((4-(5-(trifluoromethyl)pyrimidin-4-yl)piperazin-1-yl)methyl)benzo[d]oxazole]",+ (+: >−5)
8,"COCCOc1ccc2c(c1)cc(CN1CCN(c3ccncc3)CC1)n2CCOC [compound 261, 5-(2-methoxyethoxy)-1-(2-methoxyethyl)-2-((4-(pyridin-4-yl)piperazin-1-yl)methyl)-1H-indole]",−
9,"FC(F)(F)c1ccc2cc(CN3CCN(c4ccncc4)CC3)[nH]c2c1 [compound 255, 2-[[4-(4-pyridyl)piperazin-1-yl]methyl]-6-(trifluoromethyl)-1H-indole]",+++ (+++: <−6)
10,"c1ccc2[nH]c(CN3CCC4(CCN(c5ccncc5)C4)C3)cc2c1 (stereo not shown) [compound 272, 7-(1H-indol-2-ylmethyl)-2-(4-pyridyl)-2,7-diazaspiro[4.4]nonane]",−
11,"Cn1cc(N2CCN(Cc3cc4ccccc4[nH]3)CC2)nn1 [compound 288, 2-((4-(1-methyl-1H-1,2,3-triazol-4-yl)piperazin-1-yl)methyl)-1H-indole]",++ (++: −5 to −6)
12,"Cc1ncnc(N2CCN(Cc3cc4cc(Cl)ccc4[nH]3)CC2)c1C [Compound 210, 5-chloro-2-((4-(5,6-dimethylpyrimidin-4-yl)piperazin-1-yl)methyl)-1H-indole]",+++ (+++: <−6)
13,"CCc1cncnc1N1CCN(Cc2cc3ccc(OCCOC)cc3[nH]2)CC1 [compound 292, 2-((4-(5-ethylpyrimidin-4-yl)piperazin-1-yl)methyl)-6-(2-methoxyethoxy)-1H-indole]",++ (++: −5 to −6)
14,"CCc1cncnc1N1CCN(Cc2nc3ccc(OCCOC)cc3[nH]2)CC1 [compound 290, 2-((4-(5-ethylpyrimidin-4-yl)piperazin-1-yl)methyl)-6-(2-methoxyethoxy)-1H-benzo[d]imidazole]",++ (++: −5 to −6)
15,"c1ccc2[nH]c(CN3CCC(Oc4ccncc4)CC3)cc2c1 [compound 268, 2-[[4-(4-pyridyloxy)-1-piperidyl]methyl]-1H-indole]",++ (++: −5 to −6)
16,"c1ccc2oc(CN3CCN(c4ccncn4)CC3)nc2c1 [compound 281, 2-[(4-pyrimidin-4-ylpiperazin-1-yl)methyl]-1,3-benzoxazole hemiformate]",+ (+: >−5)
17,"CCCN1CCN(Cc2cc3ccccc3[nH]2)CC1 [Compound 230, 2-[(4-propylpiperazin-1-yl)methyl]-1H-indole]",+ (+: >−5)
18,Fc1cncnc1N1CCN(Cc2nc3ccccc3o2)CC1 [compound 313],+ (+: >−5)
19,"Cc1ncnc(N2CCN(Cc3nc4ccccc4o3)CC2)c1C [compound 259, 2-[[4-(5,6-dimethylpyrimidin-4-yl)piperazin-1-yl]methyl]-1,3-benzoxazole]",+++ (+++: <−6)
